Measurements taken from US10993437B2, “Anti-microbial polymer incorporating a quaternary ammonium group” (priority 2013, dated 2021).

Legend:
Assay type in all cases: cell-based
[1] = system: Aspergillus fumigatus; experiment: Antifungal disk susceptibility test, rings of inhibition; settings: for A. fumigatus, diameter of ring of inhibition: Sabouraud plate, 18-24 hrs at 35° C., 100 μg of compound per disc, Amphotericin B 100 ug or 20 μg
Protocol: (§1) Adapted from Messer et al., (2007), this protocol was used to test novel compounds for antifungal properties against yeasts and fungi. Compounds were tested for antifungal activity against pure cultures of Saccharomyces cerevisiae, Candida albicans supplied by Ward's Natural Science Ltd. and Aspergillus niger and Aspergillus fumigatus supplied by […]. (Inverness Medical, Ottawa, Ontario, Canada). All cultures were maintained on Sabouraud agar. […] The cultures of A. niger and A. fumigatus were transferred, using an inoculation loop, to new Sabouraud agar and grown for 48 hrs. at 27° C., and 35° C. respectively, to cause sporulation. Triplicates of all the plates and broth cultures were made in case of error or contamination. Using a sterile swab, and aseptic techniques, the cell suspension of S. cerevisiae, and C. albicans were transferred to Sabouraud agar plates and spread evenly, ensuring that the entire surface was inoculated. They were then left to dry for 10 minutes. […] The 0.2% Tween 80 reduces the hydrophobicity of the conidia, allowing the spores to be readily suspended (Messer et al., 2007). Alternatively two small circles containing fungal growth of the A Niger or A Fumigatus fungi were cut from the agar plates, and using a glass/PTFE tissue homoginzer, were mixed and homogenized with 5 ml of sterile MilliQ water to create a suspension of fungal spores. Using a sterile swab, and aseptic techniques, the spore inocula of A. niger and A. fumigatus were transferred to Sabouraud agar plates and spread evenly, ensuring that the entire surface was inoculated. They were then left to dry for 10 minutes. Amphotericin B (100 μg) in acetone was used as a control. Four antibiotic discs containing different compounds were place equidistant apart on each Sabouraud plate. […] If clear rings of inhibition were present, the diameter was measured twice using a caliper. Halos indicated partial inhibition of growth (Hicks et al., 2008). […] The paper towels were then allowed to dry. After, 5 cm from each edge of the paper towels was cut out (to prevent edge areas where spraying might have been irregular being tested), and from the remaining paper towels, a single hole punch machine was used to punch 6 mm paper discs from each of the paper towels.

[2] = system: Aspergillus niger; experiment: as above; settings: for A. niger, diameter of ring of inhibition: Sabouraud plate, 48 hrs at room temperature, 100 μg of compound per disc, Amphotericin B 100 ug or 20 μg
Protocol: as §1

[3] = system: Saccharomyces cerevisiae; experiment: as above; settings: for S. cerevisiae, diameter of ring of inhibition: Sabouraud plate, 18-24 hrs at 37° C., 100 μg of compound per disc, Amphotericin B 50 ug or 20 μg
Protocol: as §1, with “Amphotericin B (100 μg) in acetone was used as a control.” left out

[4] = system: Candida albicans; experiment: as above; settings: for C. albicans, diameter of ring of inhibition: Sabouraud plate, 18-24 hrs at 37° C., 100 μg of compound per disc, Amphotericin B 50 ug or 20 μg
Protocol: as §1, with “Amphotericin B (100 μg) in acetone was used as a control.” left out

[5] = system: Proteus mirabilis/hauseri; experiment: Antibiotic disk susceptibility test, rings of inhibition; settings: for P. hauseri, diameter of ring of inhibition: Mueller-Hinton plate, 18-24 hrs at 37° C., 100 μg of compound per disc, control discs 10 or 30 μg; for P. hauseri, diameter of ring of inhibition, antimicrobial paper towels: 6 mm paper discs punched from paper towels, antibiotic control discs 10 or 30 ug
Protocol: (§2) Compounds were tested for antibacterial activity, as described in Ma et al. (2011), against pure cultures of Escherichia coli, Pseudomonas aeruginosa, Bacillus cereus, Proteus mirabilis/hauseri, and Staphylococcus aureus, supplied by Ward's Natural Science Ltd. (St. Catherines, Ontario, Canada). All cultures were maintained on Tryptic Soy agar. These cultures were then transferred using an inoculation loop to 10 mL of Tryptic soy broth, and grown at 37° C. for 24 hours. Triplicates of plate and broth cultures were made in case of error or contamination. Using a sterile swab, and aseptic techniques, the bacterial broth inocula were transferred to Mueller-Hinton plates and spread evenly, ensuring that the entire surface was inoculated. They were then left to dry for 3-5 minutes. The following control discs were used: Penicillin (10 μg), Tetracycline (30 μg), Chloramphenicol (30 μg), and Ampicillin (10 μg). Four antibiotic discs containing different compounds were placed equidistant from each other on a Mueller-Hinton plate. […] If clear rings of inhibition were present, the diameter was measured twice using a caliper. […] The paper towels were then allowed to dry. After, 5 cm from each edge of the paper towels was cut out (to prevent edge areas where spraying might have been irregular being tested), and from the remaining paper towels, a single hole punch machine was used to punch 6 mm paper discs from each of the paper towels.

[6] = system: Escherichia coli; experiment: as above; settings: for E. coli, diameter of ring of inhibition: Mueller-Hinton plate, 18-24 hrs at 37° C., 100 μg of compound per disc, control discs 10 or 30 μg; for E. coli, diameter of ring of inhibition, antimicrobial paper towels: 6 mm paper discs punched from paper towels, antibiotic control discs 10 or 30 ug
Protocol: as §2

[7] = system: Pseudomonas aeruginosa; experiment: as above; settings: for P. aeruginosa, diameter of ring of inhibition: Mueller-Hinton plate, 18-24 hrs at 37° C., 100 μg of compound per disc, control discs 10 or 30 μg
Protocol: as §2

[8] = system: Bacillus cereus; experiment: as above; settings: for B. cereus, diameter of ring of inhibition: Mueller-Hinton plate, 18-24 hrs at 37° C., 100 μg of compound per disc, control discs 10 or 30 μg; for B. cereus, diameter of ring of inhibition, antimicrobial paper towels: 6 mm paper discs punched from paper towels, antibiotic control discs 10 or 30 ug
Protocol: as §2

[9] = system: Staphylococcus aureus; experiment: as above; settings: for S. aureus, diameter of ring of inhibition: Mueller-Hinton plate, 18-24 hrs at 37° C., 100 μg of compound per disc, control discs 10 or 30 μg; for S. aureus, diameter of ring of inhibition, antimicrobial paper towels: 6 mm paper discs punched from paper towels, antibiotic control discs 10 or 30 ug
Protocol: as §2

[10] = 6 mm paper discs punched from paper towels, PAA-BZ-H 100 μg of solution onto paper discs, Amphotericin B 20 ug

Compound	A. fumigatus, diameter of ring of inhibition [1]	A. niger, diameter of ring of inhibition [2]	S. cerevisiae, diameter of ring of inhibition [3]	C. albicans, diameter of ring of inhibition [4]	P. hauseri, diameter of ring of inhibition [5]	E. coli, diameter of ring of inhibition [6]	P. aeruginosa, diameter of ring of inhibition [7]	B. cereus, diameter of ring of inhibition [8]	S. aureus, diameter of ring of inhibition [9]	P. hauseri, diameter of ring of inhibition, antimicrobial paper towels [5]	E. coli, diameter of ring of inhibition, antimicrobial paper towels [6]	S. aureus, diameter of ring of inhibition, antimicrobial paper towels [9]	B. cereus, diameter of ring of inhibition, antimicrobial paper towels [8]	A. fumigatus, diameter of ring of inhibition, antimicrobial paper towels [1, 10]	A. niger, diameter of ring of inhibition, antimicrobial paper towels [2, 10]	S. cerevisiae, diameter of ring of inhibition, antimicrobial paper towels [3, 10]	C. albicans, diameter of ring of inhibition, antimicrobial paper towels [4, 10]	P. aeruginosa, diameter of ring of inhibition, antimicrobial paper towels ([7]; 6 mm paper discs punched from paper towels, antibiotic control discs 10 or 30 ug)
CCCCCCCCCCCCCC[N+](C)(C)Cc1ccccc1.[Cl-] [Compound 15, Benzyldimethyltetradecylammonium chloride]	8.13	10.97	11.33	7.48	12.63	12.70	8.13	14.30	13.43	–	–	–	–	–	–	–	–	–
Penicillin [Compound 9]	–	–	–	–	11.00	15.91	–	–	31.50	11	15.91	31.5	–	–	–	–	–	–
CC1(C)S[C@@H]2[C@H](NC(=O)[C@H](N)c3ccccc3)C(=O)N2[C@H]1C(=O)O [Compound 12, Ampicillin]	–	–	–	–	19.00	17.13	–	13.50	28.80	19	17.13	28.8	13.5	–	–	–	–	–
C[C@@H]1[C@H](O)[C@@H](C)/C=C/C=C/C=C/C=C/C=C/C=C/C=C/[C@H](O[C@@H]2O[C@H](C)[C@@H](O)[C@H](N)[C@@H]2O)C[C@@H]2O[C@](O)(C[C@@H](O)C[C@@H](O)[C@H](O)CC[C@@H](O)C[C@@H](O)CC(=O)O[C@H]1C)C[C@H](O)[C@H]2C(=O)O [Compound 14, Amphotericin B]	7.80	8.80	10.80	11.00	–	–	–	–	–	–	–	–	–	9.4	8.7	13.4	9.7	–
O=C(N[C@H](CO)[C@H](O)c1ccc([N+](=O)[O-])cc1)C(Cl)Cl [Compound 11, Chloramphenicol]	–	–	–	–	16.50	32.25	–	26.30	17.70	16.5	32.25	17.7	26.3	–	–	–	–	–
C[C@@H]1[C@H](O)[C@@H](C)/C=C/C=C/C=C/C=C/C=C/C=C/C=C/[C@H](O[C@@H]2O[C@H](C)[C@@H](O)[C@H](N)[C@@H]2O)C[C@@H]2O[C@](O)(C[C@@H](O)C[C@@H](O)[C@H](O)CC[C@@H](O)C[C@@H](O)CC(=O)O[C@H]1C)C[C@H](O)[C@H]2C(=O)O [Compound 13, Amphotericin B]	11.19	17.86	8.39	9.35	–	–	–	–	–	–	–	–	–	–	–	–	–	–
CN(C)[C@@H]1C(O)=C(C(N)=O)C(=O)[C@@]2(O)C(O)=C3C(=O)c4c(O)cccc4[C@@](C)(O)[C@H]3C[C@@H]12 [Compound 10, Tetracycline]	–	–	–	–	29.50	20.45	10.75	20.30	23.30	29.5	20.45	23.3	20.3	–	–	–	–	10.75
